Reference: patent publication US12492173B2, “Herbicidal substituted N-tetrazolyl aryl carboxamides” (Bayer Aktiengesellschaft, priority 2019, dated 2025)

Columns and labels:
Format in all cases: in vivo
Matricaria inodora = assay: Pre-emergence herbicidal action, MATIN; conditions: dosage 320 g/ha, scored visually after 3 weeks vs untreated controls (100% = plants have died)
Procedure, shortened: (§1)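 Visual scoring after 3 weeks in the greenhouse, relative to untreated pots, gave percent activity, where 100% means dead plants and 0% equals controls. Treatment was a pre-emergence soil-surface spray of WP or EC formulations in water (600 to 800 l/ha, 0.2% wetting agent) over seeds covered in sandy loam.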

Polygonum convolvulus [1] = assay: Pre-emergence herbicidal action, POLCO; conditions: dosage 320 g/ha, scored visually after 3 weeks vs untreated controls (100% = plants have died)
Procedure, shortened: as §1

Amaranthus retroflexus = assay: Post-emergence herbicidal action, AMARE; set-up: key: % herbicidal action vs untreated; 100 = plants died, 0 = like control
Procedure, shortened: (§2)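 Greenhouse weeds grown in sandy loam were sprayed at the one-leaf stage, 2–3 weeks after sowing, with WP or EC formulations at 600–800 l/ha water plus 0.2% wetting agent. Damage scored visually about 3 weeks later, in percent against untreated controls (100% = plants dead).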

Pharbitis purpurea = assay: Post-emergence herbicidal action, PHBPU
Procedure, shortened: as §2

Polygonum convolvulus [2] = assay: Post-emergence herbicidal action, POLCO
Procedure, shortened: as §2

Stellaria media = assay: Post-emergence herbicidal action, STEME; set-up: key: % herbicidal action vs untreated; 100 = plants died, 0 = like control
Procedure, shortened: as §2

Viola tricolor = assay: Post-emergence herbicidal action, VIOTR; set-up: key: % herbicidal action vs untreated; 100 = plants died, 0 = like control
Procedure, shortened: as §2

CCn1nnnc1NC(=O)c1ccc(C(F)F)c(CSC)c1SC [Example 2-170]
herbicidal activity MATIN (Matricaria inodora): 100% | herbicidal activity POLCO (Polygonum convolvulus [1]): 100% | herbicidal action AMARE (Amaranthus retroflexus; Dosage 80 g/ha): 100 | herbicidal action PHBPU (Pharbitis purpurea; Dosage 80 g/ha): 90 | herbicidal action POLCO (Polygonum convolvulus [2]; Dosage 80 g/ha): 90 | herbicidal action STEME (Stellaria media; Dosage 80 g/ha): 100 | herbicidal action VIOTR (Viola tricolor; Dosage 80 g/ha): 100

CCn1nnnc1NC(=O)c1ccc(C(F)F)c(C[S+](C)[O-])c1SC (stereo not drawn) [Example 2-171]
herbicidal activity MATIN (Matricaria inodora): 100% | herbicidal activity POLCO (Polygonum convolvulus [1]): 90% | herbicidal action AMARE (Amaranthus retroflexus; Dosage 80 g/ha): 100 | herbicidal action PHBPU (Pharbitis purpurea; Dosage 80 g/ha): 100 | herbicidal action POLCO (Polygonum convolvulus [2]; Dosage 80 g/ha): 90 | herbicidal action STEME (Stellaria media; Dosage 80 g/ha): 100 | herbicidal action VIOTR (Viola tricolor; Dosage 80 g/ha): 100

CCn1nnnc1NC(=O)c1ccc(C(F)(F)F)c(CSC)c1Cl [Example 2-296]
herbicidal activity MATIN (Matricaria inodora): 100% | herbicidal activity POLCO (Polygonum convolvulus [1]): 100% | herbicidal action AMARE (Amaranthus retroflexus; post-emergence, dosage 80 g/ha): 100% | herbicidal action PHBPU (Pharbitis purpurea; post-emergence, dosage 80 g/ha): 90% | herbicidal action POLCO (Polygonum convolvulus [2]; post-emergence, dosage 80 g/ha): 100% | herbicidal action STEME (Stellaria media; post-emergence, dosage 80 g/ha): 100% | herbicidal action VIOTR (Viola tricolor; post-emergence, dosage 80 g/ha): 100%

CCn1nnnc1NC(=O)c1ccc(C(F)(F)F)c(C[S+](C)[O-])c1Cl (stereo not drawn) [Example 2-297]
herbicidal activity MATIN (Matricaria inodora): 100% | herbicidal activity POLCO (Polygonum convolvulus [1]): 80% | herbicidal action AMARE (Amaranthus retroflexus; post-emergence, dosage 80 g/ha): 100% | herbicidal action PHBPU (Pharbitis purpurea; post-emergence, dosage 80 g/ha): 100% | herbicidal action POLCO (Polygonum convolvulus [2]; post-emergence, dosage 80 g/ha): 90% | herbicidal action STEME (Stellaria media; post-emergence, dosage 80 g/ha): 100% | herbicidal action VIOTR (Viola tricolor; post-emergence, dosage 80 g/ha): 100%

CCn1nnnc1NC(=O)c1ccc(C(F)(F)F)c(CS(C)(=O)=O)c1Cl [Example 2-298]
herbicidal activity MATIN (Matricaria inodora): 100% | herbicidal activity POLCO (Polygonum convolvulus [1]): 90% | herbicidal action AMARE (Amaranthus retroflexus; Dosage 80 g/ha): 90 | herbicidal action PHBPU (Pharbitis purpurea; Dosage 80 g/ha): 90 | herbicidal action POLCO (Polygonum convolvulus [2]; Dosage 80 g/ha): 90 | herbicidal action STEME (Stellaria media; Dosage 80 g/ha): 100 | herbicidal action VIOTR (Viola tricolor; Dosage 80 g/ha): 100

CCSCc1c(C(F)(F)F)ccc(C(=O)Nc2nnnn2CC)c1Cl [Example 2-299]
herbicidal activity MATIN (Matricaria inodora): 100% | herbicidal activity POLCO (Polygonum convolvulus [1]): 90% | herbicidal action AMARE (Amaranthus retroflexus; post-emergence, dosage 80 g/ha): 90% | herbicidal action PHBPU (Pharbitis purpurea; post-emergence, dosage 80 g/ha): 90% | herbicidal action POLCO (Polygonum convolvulus [2]; post-emergence, dosage 80 g/ha): 90% | herbicidal action STEME (Stellaria media; post-emergence, dosage 80 g/ha): 100% | herbicidal action VIOTR (Viola tricolor; post-emergence, dosage 80 g/ha): 100%

CCn1nnnc1NC(=O)c1ccc(C(F)(F)F)c(C[S+]([O-])CC)c1Cl (stereo not drawn) [Example 2-300]
herbicidal activity MATIN (Matricaria inodora): 100% | herbicidal activity POLCO (Polygonum convolvulus [1]): 100% | herbicidal action AMARE (Amaranthus retroflexus; post-emergence, dosage 80 g/ha): 100% | herbicidal action PHBPU (Pharbitis purpurea; post-emergence, dosage 80 g/ha): 90% | herbicidal action POLCO (Polygonum convolvulus [2]; post-emergence, dosage 80 g/ha): 100% | herbicidal action STEME (Stellaria media; post-emergence, dosage 80 g/ha): 100% | herbicidal action VIOTR (Viola tricolor; post-emergence, dosage 80 g/ha): 100%

CCn1nnnc1NC(=O)c1ccc(C(F)(F)F)c(CSCCOC)c1Cl [Example 2-305]
herbicidal activity MATIN (Matricaria inodora): 100% | herbicidal activity POLCO (Polygonum convolvulus [1]): 100% | herbicidal action AMARE (Amaranthus retroflexus; post-emergence, dosage 80 g/ha): 100% | herbicidal action PHBPU (Pharbitis purpurea; post-emergence, dosage 80 g/ha): 100% | herbicidal action POLCO (Polygonum convolvulus [2]; post-emergence, dosage 80 g/ha): 100% | herbicidal action STEME (Stellaria media; post-emergence, dosage 80 g/ha): 100% | herbicidal action VIOTR (Viola tricolor; post-emergence, dosage 80 g/ha): 100%

CCn1nnnc1NC(=O)c1ccc(C(F)(F)F)c(CSCC(F)(F)F)c1Cl [Example 2-311]
herbicidal activity MATIN (Matricaria inodora): 100% | herbicidal activity POLCO (Polygonum convolvulus [1]): 80% | herbicidal action AMARE (Amaranthus retroflexus; Dosage 80 g/ha): 100 | herbicidal action PHBPU (Pharbitis purpurea; Dosage 80 g/ha): 90 | herbicidal action POLCO (Polygonum convolvulus [2]; Dosage 80 g/ha): 90 | herbicidal action STEME (Stellaria media; Dosage 80 g/ha): 100 | herbicidal action VIOTR (Viola tricolor; Dosage 80 g/ha): 100

CCn1nnnc1NC(=O)c1ccc(C(F)(F)F)c(C[S+]([O-])CC2CC2)c1Cl (stereo not drawn) [Example 2-315]
herbicidal activity MATIN (Matricaria inodora): 100% | herbicidal activity POLCO (Polygonum convolvulus [1]): 90% | herbicidal action AMARE (Amaranthus retroflexus; Dosage 80 g/ha): 100 | herbicidal action PHBPU (Pharbitis purpurea; Dosage 80 g/ha): 100 | herbicidal action POLCO (Polygonum convolvulus [2]; Dosage 80 g/ha): 100 | herbicidal action STEME (Stellaria media; Dosage 80 g/ha): 100 | herbicidal action VIOTR (Viola tricolor; Dosage 80 g/ha): 100

CCn1nnnc1NC(=O)c1ccc(C(F)F)c(CSC)c1Cl [Example 2-320]
herbicidal activity MATIN (Matricaria inodora): 100% | herbicidal activity POLCO (Polygonum convolvulus [1]): 90% | herbicidal action AMARE (Amaranthus retroflexus; Dosage 80 g/ha): 100 | herbicidal action PHBPU (Pharbitis purpurea; Dosage 80 g/ha): 90 | herbicidal action POLCO (Polygonum convolvulus [2]; Dosage 80 g/ha): 100 | herbicidal action STEME (Stellaria media; Dosage 80 g/ha): 100 | herbicidal action VIOTR (Viola tricolor; Dosage 80 g/ha): 100

CCn1nnnc1NC(=O)c1ccc(C(F)F)c(CS(C)(=O)=O)c1Cl [Example 2-322]
herbicidal activity MATIN (Matricaria inodora): 90% | herbicidal activity POLCO (Polygonum convolvulus [1]): 100% | herbicidal action AMARE (Amaranthus retroflexus; post-emergence, dosage 80 g/ha): 80% | herbicidal action PHBPU (Pharbitis purpurea; post-emergence, dosage 80 g/ha): 90% | herbicidal action POLCO (Polygonum convolvulus [2]; post-emergence, dosage 80 g/ha): 100% | herbicidal action STEME (Stellaria media; post-emergence, dosage 80 g/ha): 100% | herbicidal action VIOTR (Viola tricolor; post-emergence, dosage 80 g/ha): 100%
